How the values were obtained:
IKZF2 (Helios) [1] = target: T1, IKZF2 (Helios) (Homo sapiens, UniProt Q96SW2+Q9UKS7); test: MOLT4 IKZF2 HiBit assay protocol (Example 64); type: cell-based; settings: MOLT4 IKZF2 HiBit cells, 10-point 30 μM to 1 nM; table title: after 6 hours of treatment (method: incubated 24 hours)
T1 construct: CRISPR/Cas-mediated insertion of the HiBiT peptide tag (Promega™) to the N-terminus of the IKZF2 gene locus; endogenous in cells; host or cells: MOLT4 cells, CRISPR/Cas knock-in of HiBiT at the endogenous IKZF2 locus
T1 sequence (Q9UKS7 whole entry): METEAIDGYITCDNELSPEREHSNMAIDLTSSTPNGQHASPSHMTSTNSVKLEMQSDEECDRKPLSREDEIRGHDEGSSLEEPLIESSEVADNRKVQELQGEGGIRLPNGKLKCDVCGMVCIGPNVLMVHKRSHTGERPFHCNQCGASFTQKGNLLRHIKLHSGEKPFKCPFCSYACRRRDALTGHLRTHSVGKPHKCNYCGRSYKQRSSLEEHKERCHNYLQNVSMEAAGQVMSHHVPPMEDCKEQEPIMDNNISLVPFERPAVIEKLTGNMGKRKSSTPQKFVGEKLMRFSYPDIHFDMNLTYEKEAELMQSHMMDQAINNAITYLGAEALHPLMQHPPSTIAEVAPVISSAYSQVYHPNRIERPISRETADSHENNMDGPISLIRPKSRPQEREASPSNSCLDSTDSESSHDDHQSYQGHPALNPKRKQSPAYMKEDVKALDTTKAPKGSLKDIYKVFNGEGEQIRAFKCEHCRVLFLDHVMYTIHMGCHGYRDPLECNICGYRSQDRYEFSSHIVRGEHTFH
T1 sequence (Q96SW2 whole entry): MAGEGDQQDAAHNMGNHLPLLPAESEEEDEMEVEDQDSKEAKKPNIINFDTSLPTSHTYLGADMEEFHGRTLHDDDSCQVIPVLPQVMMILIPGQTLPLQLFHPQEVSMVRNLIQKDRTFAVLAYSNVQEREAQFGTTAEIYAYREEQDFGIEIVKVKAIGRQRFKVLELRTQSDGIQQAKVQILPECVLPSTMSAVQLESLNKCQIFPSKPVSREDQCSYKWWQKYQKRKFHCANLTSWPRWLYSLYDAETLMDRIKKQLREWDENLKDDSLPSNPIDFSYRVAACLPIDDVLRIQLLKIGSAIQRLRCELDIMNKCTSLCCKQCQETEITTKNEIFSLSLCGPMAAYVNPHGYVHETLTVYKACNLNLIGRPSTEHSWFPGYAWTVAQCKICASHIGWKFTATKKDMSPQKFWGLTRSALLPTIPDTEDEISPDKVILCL
T1 sequence (Q16531 whole entry partner): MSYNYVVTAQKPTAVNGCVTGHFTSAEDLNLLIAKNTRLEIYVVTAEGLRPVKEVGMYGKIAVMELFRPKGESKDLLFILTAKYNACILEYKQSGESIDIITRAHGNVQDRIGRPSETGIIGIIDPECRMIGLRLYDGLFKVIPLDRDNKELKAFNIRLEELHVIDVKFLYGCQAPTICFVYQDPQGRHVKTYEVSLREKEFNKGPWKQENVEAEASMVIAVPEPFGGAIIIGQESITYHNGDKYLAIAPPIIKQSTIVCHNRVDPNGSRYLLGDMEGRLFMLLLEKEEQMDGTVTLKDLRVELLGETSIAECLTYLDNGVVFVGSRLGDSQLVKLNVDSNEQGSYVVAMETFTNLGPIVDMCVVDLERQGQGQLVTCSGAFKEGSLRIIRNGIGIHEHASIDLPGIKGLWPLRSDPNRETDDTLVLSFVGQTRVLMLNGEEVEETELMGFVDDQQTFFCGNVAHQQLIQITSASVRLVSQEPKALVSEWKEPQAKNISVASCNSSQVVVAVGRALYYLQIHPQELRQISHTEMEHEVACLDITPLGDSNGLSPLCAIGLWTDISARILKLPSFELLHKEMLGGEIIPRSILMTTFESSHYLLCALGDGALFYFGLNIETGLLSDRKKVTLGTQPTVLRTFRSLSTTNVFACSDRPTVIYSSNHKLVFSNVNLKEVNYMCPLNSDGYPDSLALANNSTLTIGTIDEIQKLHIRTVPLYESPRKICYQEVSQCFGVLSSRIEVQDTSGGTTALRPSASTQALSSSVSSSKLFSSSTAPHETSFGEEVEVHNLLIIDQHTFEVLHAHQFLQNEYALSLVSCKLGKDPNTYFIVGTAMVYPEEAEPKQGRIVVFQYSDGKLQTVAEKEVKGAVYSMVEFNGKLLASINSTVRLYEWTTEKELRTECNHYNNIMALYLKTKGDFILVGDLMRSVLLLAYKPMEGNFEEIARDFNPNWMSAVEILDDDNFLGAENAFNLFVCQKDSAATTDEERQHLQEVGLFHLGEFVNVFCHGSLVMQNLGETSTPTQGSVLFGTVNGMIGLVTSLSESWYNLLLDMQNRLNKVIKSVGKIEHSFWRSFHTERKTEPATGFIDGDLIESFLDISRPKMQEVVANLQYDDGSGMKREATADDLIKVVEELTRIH
Protocol: This protocol uses MOLT4 cells that were engineered using CRISPR/Cas9-mediated genomic insertion of HiBit, tagged to the N terminus of the IKZF2 coding sequence. Day 1. Created a 10-point dose response starting from 30 μM down to 1 nM using a Tecan D300e. Next added 8,000 cells/well of the MOLT4 IKZF2 HiBit cells to the compound plate. […] Day 2. Added Nano-Glo® HiBit Lytic Buffer/Nano-Glo® HiBit Lytic substrate/LgBit Protein mix to each well and incubated for 15 minutes. Finally, read luminescence signal using a BMG Labtech PHERAstar® FSX. Data was normalized to DMSO and graphed using GraphPad Prism to determine the concentration points at which 50% of HiBiT-Helios degradation was achieved by each compound. The extent of degradation (range of luminescence) from the highest to lowest concentration points was calculated to determine Dmax.

IKZF2 (Helios) [2] = target: T1, IKZF2 (Helios); test: HiBiT protocol: HiBiT-Helios degradation in MOLT4 cells (Example 63); type: cell-based; settings: after 6 hours of treatment, 13-point 10 μM to 0.00026 μM
Protocol: The HiBiT protein tagging system was applied to MOLT4 cells via a CRISPR/Cas-mediated insertion of the HiBiT peptide tag (Promega™) to the N-terminus of the IKZF2 gene locus (Neon™ Transfection System). The resulting HiBiT-Helios stable cell line was treated with the following inventive compounds in triplicates following a 13-point concentration scheme ranging from 10 μM to 0.00026 μM. At the indicated timepoints, the Nano-Glo® HiBiT Lytic Detection system (Promega™) was utilized for detecting bioluminescence of the HiBiT tag in treated cells: the abundance of the tag is proportionate to the level of luminescence. Following normalization to DMSO, dose-response curves were plotted (GraphPad Prism) to determine the concentration points at which 50% of HiBiT-Helios degradation was achieved by each compound. The extent of degradation (range of luminescence) from the highest to lowest concentration points was calculated to determine Dmax.

Compound	DC50 (IKZF2 (Helios) [1])	other results
O=C1CCC(N2Cc3cc(C4CCN(Cc5ccc6ncn(-c7cncc(F)c7)c(=O)c6c5)CC4)ccc3C2=O)C(=O)N1 (stereo not shown) [Compound 75, 3-(5-(1-((3-(5-fluoropyridin-3-yl)-4-oxo-3,4-dihydroquinazolin-6-yl)methyl)piperidin-4-yl)-1-oxoisoindolin-2-yl)piperidine-2,6-dione]	25 to 100 nM	
Cc1ccc(-n2cnc3ccc(CN4CCC(c5ccc6c(c5)CN(C5CCC(=O)NC5=O)C6=O)CC4)cc3c2=O)cn1 (stereo not shown) [Compound 69, 3-(5-(1-((3-(6-methylpyridin-3-yl)-4-oxo-3,4-dihydroquinazolin-6-yl)methyl)piperidin-4-yl)-1-oxoisoindolin-2-yl)piperidine-2,6-dione]		IKZF2 DC50 (M) (IKZF2 (Helios) [1]): + +
O=C1CCC(N2Cc3c(ccc(C4CCN(Cc5ccc6ncn(-c7ccccn7)c(=O)c6c5)CC4)c3F)C2=O)C(=O)N1 (stereo not shown) [Compound 85, 3-(4-fluoro-1-oxo-5-(1-((4-oxo-3-(pyridin-2-yl)-3,4-dihydroquinazolin-6-yl)methyl)piperidin-4-yl)isoindolin-2-yl)piperidine-2,6-dione]	25 to 100 nM	
O=C1CCC(N2Cc3cc(C4CCN(Cc5ccc6ncn(-c7ncccc7F)c(=O)c6c5)CC4)ccc3C2=O)C(=O)N1 (stereo not shown) [Compound 58]		DC50 (IKZF2 (Helios) [2]): < 5 nM
O=C1CCC(N2Cc3cc(C4CCN(Cc5cn6cc(-c7cccnc7)ccc6n5)CC4)ccc3C2=O)C(=O)N1 (stereo not shown) [Compound 97, 3-(1-oxo-5-(1-((6-(pyridin-3-yl)imidazo[1,2-a]pyridin-2-yl)methyl)piperidin-4-yl)isoindolin-2-yl)piperidine-2,6-dione]	25 to 100 nM	
O=C1CCC(N2Cc3cc(C4CCN(Cc5ccc6nc(-c7ccccc7)nn6c5)CC4)ccc3C2=O)C(=O)N1 (stereo not shown) [Compound 55, 3-(1-oxo-5-(1-((2-phenyl-[1,2,4]triazolo[1,5-a]pyridin-6-yl)methyl)piperidin-4-yl)isoindolin-2-yl)piperidine-2,6-dione]	25 to 100 nM	
O=C1CCC(N2Cc3cc(C4CCN(Cc5cn6ccc(-c7cccnc7)cc6n5)CC4)ccc3C2=O)C(=O)N1 (stereo not shown) [Compound 99, 3-(1-oxo-5-(1-((7-(pyridin-3-yl)imidazo[1,2-a]pyridin-2-yl)methyl)piperidin-4-yl)isoindolin-2-yl)piperidine-2,6-dione]	25 to 100 nM	
O=C1CCC(N2Cc3cc(C4CCN(Cc5cn6ccc(-c7ccccc7)cc6n5)CC4)ccc3C2=O)C(=O)N1 (stereo not shown) [Compound 98, 3-(1-oxo-5-(1-((7-phenylimidazo[1,2-a]pyridin-2-yl)methyl)piperidin-4-yl)isoindolin-2-yl)piperidine-2,6-dione]	25 to 100 nM	
O=C1CCC(N2Cc3cc(C4CCN(Cc5ccc6ncn(-c7cccnc7)c(=O)c6c5)CC4)ccc3C2=O)C(=O)N1 (stereo not shown) [Compound 67, 3-(1-oxo-5-(1-((4-oxo-3-(pyridin-3-yl)-3,4-dihydroquinazolin-6-yl)methyl)piperidin-4-yl)isoindolin-2-yl)piperidine-2,6-dione]	5 to 25 nM	
COc1cccc(-n2cnc3ccc(CN4CCC(c5ccc6c(c5)CN(C5CCC(=O)NC5=O)C6=O)CC4)cc3c2=O)n1 (stereo not shown) [Compound 65, 3-(5-(1-((3-(6-methoxypyridin-2-yl)-4-oxo-3,4-dihydroquinazolin-6-yl)methyl)piperidin-4-yl)-1-oxoisoindolin-2-yl)piperidine-2,6-dione]	5 to 25 nM	
O=C1CCC(N2Cc3cc(C4CCN(Cc5cn6cc(-c7ccccc7)ccc6n5)CC4)ccc3C2=O)C(=O)N1 (stereo not shown) [Compound 96, 3-(1-oxo-5-(1-((6-phenylimidazo[1,2-a]pyridin-2-yl)methyl)piperidin-4-yl)isoindolin-2-yl)piperidine-2,6-dione]	25 to 100 nM	

The next lines start with results.

DC50 (IKZF2 (Helios) [1])	Compound	other results
5 to 25 nM	Cn1cc(-n2cnc3ccc(CN4CCC(c5ccc6c(c5)CN(C5CCC(=O)NC5=O)C6=O)CC4)cc3c2=O)cn1 (stereo not shown) [Compound 82, 3-(5-(1-((3-(1-methyl-1H-pyrazol-4-yl)-4-oxo-3,4-dihydroquinazolin-6-yl)methyl)piperidin-4-yl)-1-oxoisoindolin-2-yl)piperidine-2,6-dione]	
5 to 25 nM	O=C1CCC(N2Cc3cc(C4CCN(Cc5ccc6ncn(-c7cccc(C(F)(F)F)c7)c(=O)c6c5)CC4)ccc3C2=O)C(=O)N1 (stereo not shown) [Compound 60, 3-(1-oxo-5-(1-((4-oxo-3-(3-(trifluoromethyl)phenyl)-3,4-dihydroquinazolin-6-yl)methyl)piperidin-4-yl)isoindolin-2-yl)piperidine-2,6-dione]	
< 5 nM	Cc1nc2ccc(CN3CCC(c4ccc5c(c4)CN(C4CCC(=O)NC4=O)C5=O)CC3)cc2c(=O)n1-c1ccccn1 (stereo not shown) [Compound 84, 3-(5-(1-((2-methyl-4-oxo-3-(pyridin-2-yl)-3,4-dihydroquinazolin-6-yl)methyl)piperidin-4-yl)-1-oxoisoindolin-2-yl)piperidine-2,6-dione]	
5 to 25 nM	O=C1CCC(N2Cc3cc(C4CCN(Cc5ccc6cc(-c7ccccn7)nn6c5)CC4)ccc3C2=O)C(=O)N1 (stereo not shown) [Compound 92, 3-(1-oxo-5-(1-((2-(pyridin-2-yl)pyrazolo[1,5-a]pyridin-6-yl)methyl)piperidin-4-yl)isoindolin-2-yl)piperidine-2,6-dione]	
< 5 nM	Cc1nc2ccc(CN3CCC(c4ccc5c(c4)CN(C4CCC(=O)NC4=O)C5=O)CC3)cc2c(=O)n1-c1ccccc1 (stereo not shown) [Compound 83, 3-(5-(1-((2-methyl-4-oxo-3-phenyl-3,4-dihydroquinazolin-6-yl)methyl)piperidin-4-yl)-1-oxoisoindolin-2-yl)piperidine-2,6-dione]	
5 to 25 nM	CC(C)c1cccc(-n2cnc3ccc(CN4CCC(c5ccc6c(c5)CN(C5CCC(=O)NC5=O)C6=O)CC4)cc3c2=O)n1 (stereo not shown) [Compound 63, 3-(5-(1-((3-(6-isopropylpyridin-2-yl)-4-oxo-3,4-dihydroquinazolin-6-yl)methyl)piperidin-4-yl)-1-oxoisoindolin-2-yl)piperidine-2,6-dione]	
5 to 25 nM	O=C1CCC(N2Cc3cc(C4CCN(Cc5ccc6ncn(-c7cccc(F)c7)c(=O)c6c5)CC4)ccc3C2=O)C(=O)N1 (stereo not shown) [Compound 28, 3-(5-(1-((3-(3-fluorophenyl)-4-oxo-3,4-dihydroquinazolin-6-yl)methyl)piperidin-4-yl)-1-oxoisoindolin-2-yl)piperidine-2,6-dione]	
< 5 nM	O=C1CCC(N2Cc3cc(C4CCN(Cc5cc6c(=O)n(-c7ccccn7)cnc6cc5F)CC4)ccc3C2=O)C(=O)N1 (stereo not shown) [Compound 87, 3-(5-(1-((7-fluoro-4-oxo-3-(pyridin-2-yl)-3,4-dihydroquinazolin-6-yl)methyl)piperidin-4-yl)-1-oxoisoindolin-2-yl)piperidine-2,6-dione]	
< 5 nM	Cc1ncccc1-n1cnc2ccc(CN3CCC(c4ccc5c(c4)CN(C4CCC(=O)NC4=O)C5=O)CC3)cc2c1=O (stereo not shown) [Compound 68, 3-(5-(1-((3-(2-methylpyridin-3-yl)-4-oxo-3,4-dihydroquinazolin-6-yl)methyl)piperidin-4-yl)-1-oxoisoindolin-2-yl)piperidine-2,6-dione]	
5 to 25 nM	O=C1CCC(N2Cc3cc(C4CCN(Cc5ccc6ncn(-c7cccc(C(F)(F)F)n7)c(=O)c6c5)CC4)ccc3C2=O)C(=O)N1 (stereo not shown) [Compound 64, 3-(1-oxo-5-(1-((4-oxo-3-(6-(trifluoromethyl)pyridin-2-yl)-3,4-dihydroquinazolin-6-yl)methyl)piperidin-4-yl)isoindolin-2-yl)piperidine-2,6-dione]	
< 5 nM	O=C1CCC(N2Cc3cc(C4CCN(Cc5ccc6nc(-c7ccccc7)cn6c5)CC4)ccc3C2=O)C(=O)N1 (stereo not shown) [Compound 54, 3-(1-oxo-5-(1-((2-phenylimidazo[1,2-a]pyridin-6-yl)methyl)piperidin-4-yl)isoindolin-2-yl)piperidine-2,6-dione]	
5 to 25 nM	Cc1cccc(-n2cnc3ccc(CN4CCC(c5ccc6c(c5)CN(C5CCC(=O)NC5=O)C6=O)CC4)cc3c2=O)n1 (stereo not shown) [Compound 62, 3-(5-(1-((3-(6-methylpyridin-2-yl)-4-oxo-3,4-dihydroquinazolin-6-yl)methyl)piperidin-4-yl)-1-oxoisoindolin-2-yl)piperidine-2,6-dione]	
5 to 25 nM	N#Cc1cccc(-n2cnc3ccc(CN4CCC(c5ccc6c(c5)CN(C5CCC(=O)NC5=O)C6=O)CC4)cc3c2=O)c1 (stereo not shown) [Compound 61, 3-(6-((4-(2-(2,6-dioxopiperidin-3-yl)-1-oxoisoindolin-5-yl)piperidin-1-yl)methyl)-4-oxoquinazolin-3(4H)-yl)benzonitrile]	
5 to 25 nM	O=C1CCC(N2Cc3c(ccc(C4CCN(Cc5ccc6ncn(-c7cccnc7)c(=O)c6c5)CC4)c3F)C2=O)C(=O)N1 (stereo not shown) [Compound 89, 3-(4-fluoro-1-oxo-5-(1-((4-oxo-3-(pyridin-3-yl)-3,4-dihydroquinazolin-6-yl)methyl)piperidin-4-yl)isoindolin-2-yl)piperidine-2,6-dione]	

— patent publication US20240034723A1, “PIPERIDINYL SMALL MOLECULE DEGRADERS OF HELIOS AND METHODS OF USE” (DANA-FARBER CANCER INSTITUTE, INC., priority 2020, published 2024)
